The source of these data is patent EP4494466A1, “SULFUR-CONTAINING COMPOUNDS AND USE THEREOF” (Consejo Superior de Investigaciones Científicas (CSIC), priority 2023, dated 2025).

One experiment concerns Botrytis cinerea. Description: Antifungal activity, spore germination inhibition growth assay (MTT). The format is cell-based. The conditions noted are these: B. cinerea spores, 24 h incubation at 25 °C, 4 replicates. The protocol:
(§1) The fungal species Aspergillus niger and Botrytis cinerea came from the fungal collection of institute de Ciencias Agrarias-CSIC, Madrid, Spain where they are maintained. The antifungal activity of the hydrolate extract and fractions were determined using a modified spore germination inhibition growth assay (Sainz, P. et al. Chemical composition and biological activities of Artemisia pedemontana subsp. assoana essential oils and hydrolate. Biomol. 2019, 9). The hydrolate extract or fractions were dissolved in dimethyl sulfoxide (DMSO) at 1% and evaluated at the final concentrations indicated.
(§2) The spore suspensions were 7.5 × 10^5 cells/mL in NaCl 0.9% for A. niger and 1 × 10^7 cells/mL in distilled water for B. cinerea. Amphotericin B (5 µg/mL) was used as a positive control. The samples and spore suspensions (4 replicates) were placed on 96-well plates and incubated for 24 h (28 °C for A. niger and 25 °C for B. cinerea). After the incubation process, 25 µL of an MTT (5 mg/mL) plus menadione (1 mM) solution in RMPIMOPS were added, the plates were incubated again for 3 h, the medium was removed, 200 µL of acidic isopropanol (95% isopropanol and 5% 1 M HCl) was added, and the plates were incubated for another 30 min. The absorbance was read at 490 nm in an Elisa reader. The IC50 values (the effective dose to give 50% inhibition) were calculated by a regression curve of % spore germination inhibition on log dose.

Another experiment has as its system Aspergillus niger. The experiment is described as above. The settings on record: A. niger spores, 24 h incubation at 28 °C, 4 replicates. It counts as cell-based. How it is done:
as §1, §2

The test system of the next experiment is H. lusitanicum. Description: Ixodicidal activity on larvae, cellulose contact toxicity. The conditions noted are these: 24 h contact with treated cellulose, Probit Analysis. The format is in vivo, Hyalomma lusitanicum. The protocol: H. lusitanicum engorged female ticks were collected in central Spain (Finca La Garganta, Ciudad Real) from their host (deer) and maintained at 22-24 °C and 70% RH until oviposition and egg hatching. Resulting larvae (4-6 weeks old) were used for the bioassays (Galisteo Pretel, A. et al. Germacrone derivatives as new insecticidal and acaricidal compounds: a structure-activity relationship. Mol. 2019, 24). Briefly, 50 µL of test solution were added to 25 mg of powdered cellulose at different concentrations (initial concentration of 20 mg/ml) and the solvent was evaporated. For each test, three replicates with 20 larvae each were used. Dead ticks were counted after 24 h of contact with the treated cellulose at the environmental conditions described, using a binocular magnifying glass. The larvicidal activity data are presented as percent mortality corrected according to Schneider-Orelli's formula (Schneider-Orelli, O. Entomologisches praktikum: Einführung in die land- und forstwirtschaftliche Insektenkunde; aus dem entomologischen institut der eidgenössischen technischen hochschule in Zürich; Sauerländer, 1947). Effective lethal doses (LC50 and LC90, the concentration that kills 50% or 90% of the organisms, respectively) were calculated by Probit Analysis (5 serial dilutions, STATGRAPHICS Centurion XVI, version 16.1.02, Statgraphics Technologies, Inc, P.O. Box 134, The Plains, Virginia 20198, USA).

Turning to `O=CC1=CCCSC1` [Compound 3, 5,6-dihydro-2H-thiopyran-3-carbaldehyde], the “LD50 (95% Confidence Limits)” value is listed as 8.79 (5.36-14.43) µg/mL in the experiment with Botrytis cinerea and 16.96 (7.98-36.03) µg/mL with Aspergillus niger. Moreover, the “LD90 (95% Confidence Limits)” value in the experiment on H. lusitanicum was 3.57 (3.20-4.23) µg/mg.

Consider `C=CCSCC(C=O)=CC` [Compound 1, 2-((allylthio)methyl)but-2-enal], for which, in the experiment with Aspergillus niger, the “LD50 (95% Confidence Limits)” value was 78.07 (63.96-95.28)µg/mL. Besides, in the experiment with H. lusitanicum, the “LD50 (95% Confidence Limits)” value is recorded as 8.42 (7.72-10.07) µg/mg and the “LD90 (95% Confidence Limits)” value is given as 15.62 (13.79-18.38) µg/mg.
